What was measured:
Assay in all cases: KINOMEscan competition binding
Conditions in all cases: compound 10.0 µM
[1] = test system: ABL1 (human), P00519 [F317I]
[2] = test system: ABL1 (human), P00519 [F317L]
[3] = test system: BMX (human), P51813 [V600E]
[4] = test system: FGFR3 (human), P22607 [G697C]
[5] = test system: FLT3 (human), P36888 [D835Y]
[6] = test system: RET (human), P07949 [V804L]
[7] = test system: EGFR (human), P00533 [A750P; 747-749 del]
[8] = test system: EGFR (human), P00533 [G719C]
[9] = test system: EGFR (human), P00533 [L858R]
[10] = test system: MET (human), P08581 [M1250T]
[11] = test system: PIK3CA (human), P42336 [E542K]
PIK3CA (human), P42336 [E542K], sequence (P42336 whole entry E542K, looked up): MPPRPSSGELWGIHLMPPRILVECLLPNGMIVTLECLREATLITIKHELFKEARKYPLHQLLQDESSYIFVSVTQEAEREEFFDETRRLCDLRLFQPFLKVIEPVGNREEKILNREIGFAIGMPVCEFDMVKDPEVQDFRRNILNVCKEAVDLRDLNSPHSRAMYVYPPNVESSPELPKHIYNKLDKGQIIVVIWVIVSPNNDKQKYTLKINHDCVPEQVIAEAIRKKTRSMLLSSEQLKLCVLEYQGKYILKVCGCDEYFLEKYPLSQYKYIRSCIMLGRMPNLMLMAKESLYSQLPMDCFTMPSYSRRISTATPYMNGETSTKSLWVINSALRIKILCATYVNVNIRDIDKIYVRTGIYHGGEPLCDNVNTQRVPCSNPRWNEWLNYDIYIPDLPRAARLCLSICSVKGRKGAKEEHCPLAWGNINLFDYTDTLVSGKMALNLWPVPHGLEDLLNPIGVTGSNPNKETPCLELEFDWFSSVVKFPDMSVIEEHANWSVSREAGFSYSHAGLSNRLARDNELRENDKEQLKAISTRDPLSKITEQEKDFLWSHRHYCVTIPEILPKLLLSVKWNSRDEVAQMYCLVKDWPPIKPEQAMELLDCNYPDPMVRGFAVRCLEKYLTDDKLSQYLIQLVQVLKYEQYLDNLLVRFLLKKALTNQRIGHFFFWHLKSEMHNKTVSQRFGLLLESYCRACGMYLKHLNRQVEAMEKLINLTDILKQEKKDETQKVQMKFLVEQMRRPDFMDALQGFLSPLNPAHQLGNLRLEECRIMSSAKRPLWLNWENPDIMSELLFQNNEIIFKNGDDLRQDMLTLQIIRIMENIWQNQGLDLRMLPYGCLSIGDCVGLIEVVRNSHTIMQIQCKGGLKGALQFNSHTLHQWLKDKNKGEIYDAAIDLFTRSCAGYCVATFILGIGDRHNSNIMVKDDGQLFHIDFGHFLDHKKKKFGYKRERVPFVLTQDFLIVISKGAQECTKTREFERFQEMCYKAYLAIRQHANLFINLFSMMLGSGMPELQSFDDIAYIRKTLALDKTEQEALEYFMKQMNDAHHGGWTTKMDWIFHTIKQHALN

[12] = test system: PIK3CA (human), P42336 [H1047L]
PIK3CA (human), P42336 [H1047L], sequence (P42336 whole entry H1047L, looked up): as the sequence (P42336 whole entry E542K, looked up) above, with K542E, H1047L counted along it

[13] = test system: PIK3CA (human), P42336 [M1043I]
PIK3CA (human), P42336 [M1043I], sequence (P42336 whole entry M1043I, looked up): as the sequence (P42336 whole entry E542K, looked up) above, with K542E, M1043I counted along it

[14] = test system: KIT (human), P10721 [A829P]
KIT (human), P10721 [A829P], sequence (P10721 whole entry A829P, looked up): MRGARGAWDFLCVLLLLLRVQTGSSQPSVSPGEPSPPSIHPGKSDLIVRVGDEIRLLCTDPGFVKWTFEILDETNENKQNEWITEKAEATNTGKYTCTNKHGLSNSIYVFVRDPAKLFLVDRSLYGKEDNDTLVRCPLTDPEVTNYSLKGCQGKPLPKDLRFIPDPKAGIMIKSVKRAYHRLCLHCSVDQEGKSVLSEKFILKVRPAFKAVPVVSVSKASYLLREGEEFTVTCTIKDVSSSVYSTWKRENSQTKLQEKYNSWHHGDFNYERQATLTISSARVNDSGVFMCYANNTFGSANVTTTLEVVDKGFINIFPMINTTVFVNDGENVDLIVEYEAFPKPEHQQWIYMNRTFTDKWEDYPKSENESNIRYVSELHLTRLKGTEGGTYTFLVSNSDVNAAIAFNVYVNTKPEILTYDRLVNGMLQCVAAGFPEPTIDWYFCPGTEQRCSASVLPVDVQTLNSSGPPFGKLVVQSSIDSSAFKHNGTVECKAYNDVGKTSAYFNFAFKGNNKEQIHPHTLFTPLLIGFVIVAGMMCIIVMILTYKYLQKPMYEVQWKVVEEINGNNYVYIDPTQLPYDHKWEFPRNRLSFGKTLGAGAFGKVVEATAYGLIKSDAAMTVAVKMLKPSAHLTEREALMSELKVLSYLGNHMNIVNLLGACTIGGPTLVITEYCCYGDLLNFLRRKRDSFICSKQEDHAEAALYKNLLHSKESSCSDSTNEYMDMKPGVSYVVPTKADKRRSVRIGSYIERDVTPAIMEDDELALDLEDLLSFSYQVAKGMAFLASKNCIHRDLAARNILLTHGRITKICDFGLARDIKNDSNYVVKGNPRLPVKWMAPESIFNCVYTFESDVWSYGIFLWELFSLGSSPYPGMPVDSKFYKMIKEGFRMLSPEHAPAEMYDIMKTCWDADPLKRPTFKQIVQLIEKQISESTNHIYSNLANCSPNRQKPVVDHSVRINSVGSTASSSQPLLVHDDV

[15] = test system: KIT (human), P10721 [D816H]
KIT (human), P10721 [D816H], sequence (P10721 whole entry D816H, looked up): as the sequence (P10721 whole entry A829P, looked up) above, with D816H, P829A counted along it

[16] = test system: LRRK2 (human), Q5S007 [G2019S]

ABL1 (human), P00519 [F317I], sequence (P00519 whole entry F317I, looked up): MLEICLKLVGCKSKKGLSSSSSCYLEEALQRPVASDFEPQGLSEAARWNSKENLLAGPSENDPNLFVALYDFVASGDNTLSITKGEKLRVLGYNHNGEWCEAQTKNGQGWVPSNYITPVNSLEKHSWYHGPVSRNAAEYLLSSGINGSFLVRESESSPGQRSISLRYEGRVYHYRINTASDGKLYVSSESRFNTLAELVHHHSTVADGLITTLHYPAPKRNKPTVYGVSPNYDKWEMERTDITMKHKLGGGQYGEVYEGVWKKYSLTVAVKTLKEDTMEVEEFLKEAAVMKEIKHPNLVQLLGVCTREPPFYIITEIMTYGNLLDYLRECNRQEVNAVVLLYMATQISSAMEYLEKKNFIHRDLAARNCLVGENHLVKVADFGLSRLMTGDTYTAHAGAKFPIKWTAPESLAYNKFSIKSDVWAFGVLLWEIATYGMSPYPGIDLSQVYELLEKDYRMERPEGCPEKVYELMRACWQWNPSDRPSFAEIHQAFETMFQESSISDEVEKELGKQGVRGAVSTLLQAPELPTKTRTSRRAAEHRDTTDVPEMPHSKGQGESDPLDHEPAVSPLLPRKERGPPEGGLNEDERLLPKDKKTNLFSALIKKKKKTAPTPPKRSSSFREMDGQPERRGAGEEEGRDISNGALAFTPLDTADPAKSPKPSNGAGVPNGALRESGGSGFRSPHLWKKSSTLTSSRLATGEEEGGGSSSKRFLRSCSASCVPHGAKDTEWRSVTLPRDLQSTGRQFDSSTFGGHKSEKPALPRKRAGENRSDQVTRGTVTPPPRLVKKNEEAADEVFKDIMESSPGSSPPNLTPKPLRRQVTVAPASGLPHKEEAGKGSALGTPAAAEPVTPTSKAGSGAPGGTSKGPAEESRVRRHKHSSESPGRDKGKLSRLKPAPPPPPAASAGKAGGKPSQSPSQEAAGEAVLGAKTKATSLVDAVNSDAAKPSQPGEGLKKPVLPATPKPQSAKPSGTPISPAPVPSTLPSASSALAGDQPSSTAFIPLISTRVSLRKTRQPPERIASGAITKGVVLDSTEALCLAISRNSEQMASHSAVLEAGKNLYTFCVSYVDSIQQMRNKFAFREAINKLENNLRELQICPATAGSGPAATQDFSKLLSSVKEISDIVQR
FGFR3 (human), P22607 [G697C], sequence (P22607 whole entry G697C, looked up): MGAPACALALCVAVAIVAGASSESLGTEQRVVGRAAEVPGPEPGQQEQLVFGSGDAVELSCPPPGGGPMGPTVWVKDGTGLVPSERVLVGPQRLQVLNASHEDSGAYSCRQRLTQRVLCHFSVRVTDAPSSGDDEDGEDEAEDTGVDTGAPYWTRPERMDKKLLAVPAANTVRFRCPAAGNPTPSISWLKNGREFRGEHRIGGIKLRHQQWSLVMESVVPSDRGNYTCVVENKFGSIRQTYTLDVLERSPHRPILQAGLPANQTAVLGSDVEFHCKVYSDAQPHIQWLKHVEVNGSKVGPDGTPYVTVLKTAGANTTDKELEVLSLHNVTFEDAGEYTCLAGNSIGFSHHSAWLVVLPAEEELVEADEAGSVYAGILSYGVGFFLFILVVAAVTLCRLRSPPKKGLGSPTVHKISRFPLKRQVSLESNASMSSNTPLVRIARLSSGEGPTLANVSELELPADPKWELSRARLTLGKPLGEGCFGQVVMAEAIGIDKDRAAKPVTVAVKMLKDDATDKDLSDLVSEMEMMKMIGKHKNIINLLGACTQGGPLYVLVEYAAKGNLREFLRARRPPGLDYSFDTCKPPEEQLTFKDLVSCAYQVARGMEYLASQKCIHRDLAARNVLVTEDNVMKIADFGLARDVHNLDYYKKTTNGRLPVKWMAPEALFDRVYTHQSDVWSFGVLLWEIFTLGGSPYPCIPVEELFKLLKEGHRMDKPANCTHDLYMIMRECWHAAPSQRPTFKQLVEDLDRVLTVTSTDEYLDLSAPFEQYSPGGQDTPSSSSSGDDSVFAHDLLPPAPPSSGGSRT
BMX (human), P51813 [V600E], sequence (P51813 whole entry, looked up, stated change not applied): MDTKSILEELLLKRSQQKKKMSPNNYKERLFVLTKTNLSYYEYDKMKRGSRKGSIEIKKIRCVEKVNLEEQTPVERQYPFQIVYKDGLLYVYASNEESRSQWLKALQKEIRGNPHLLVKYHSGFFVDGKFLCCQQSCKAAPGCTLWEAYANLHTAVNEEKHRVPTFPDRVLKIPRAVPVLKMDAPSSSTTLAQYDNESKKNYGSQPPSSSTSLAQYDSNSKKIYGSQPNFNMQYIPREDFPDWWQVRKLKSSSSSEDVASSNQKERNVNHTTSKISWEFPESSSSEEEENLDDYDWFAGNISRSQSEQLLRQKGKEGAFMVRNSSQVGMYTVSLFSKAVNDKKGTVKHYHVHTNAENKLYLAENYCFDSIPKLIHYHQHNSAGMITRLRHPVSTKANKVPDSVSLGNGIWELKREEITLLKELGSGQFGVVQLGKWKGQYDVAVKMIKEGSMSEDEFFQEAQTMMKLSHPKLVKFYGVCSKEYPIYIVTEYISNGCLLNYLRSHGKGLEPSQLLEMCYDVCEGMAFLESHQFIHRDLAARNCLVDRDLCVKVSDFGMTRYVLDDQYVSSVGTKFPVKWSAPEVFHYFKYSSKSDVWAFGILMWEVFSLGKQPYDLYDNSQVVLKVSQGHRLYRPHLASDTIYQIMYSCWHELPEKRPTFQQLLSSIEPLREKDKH
ABL1 (human), P00519 [F317L], sequence (P00519 whole entry F317L, looked up): as the sequence (P00519 whole entry F317I, looked up) above, with I317L counted along it

Row | kinase still bound, per cent of control [1] [%] | kinase still bound, per cent of control [2] [%] | kinase still bound, per cent of control [3] [%] | kinase still bound, per cent of control [4] [%] | kinase still bound, per cent of control [5] [%] | kinase still bound, per cent of control [6] [%] | kinase still bound, per cent of control [7] [%] | kinase still bound, per cent of control [8] [%] | kinase still bound, per cent of control [9] [%] | kinase still bound, per cent of control [10] [%] | kinase still bound, per cent of control [11] [%] | kinase still bound, per cent of control [12] [%] | kinase still bound, per cent of control [13] [%] | kinase still bound, per cent of control [14] [%] | kinase still bound, per cent of control [15] [%] | kinase still bound, per cent of control [16] [%] | Compound
1 | 100 | 100 | 100 | 100 | 100 | 100 | – | – | – | – | – | – | – | – | – | – | CC[C@@H]1C(=O)N(C)c2cnc(Nc3ccc(C(=O)NC4CCN(C)CC4)cc3OC)nc2N1C1CCCC1
2 | 5 | 17 | 100 | 100 | 100 | 100 | 100 | 100 | 100 | 100 | 100 | 100 | 100 | – | – | – | COc1cc(N2CCN(C)CC2)ccc1Nc1ncc2c(n1)N(C)c1ccccc1C(=O)N2C
3 | 100 | 100 | 100 | 1.4 | 100 | 100 | 0.55 | 0.1 | 0.2 | – | – | – | – | – | – | – | C=CC(=O)Nc1ccc(CN(C(=O)Nc2c(Cl)c(OC)cc(OC)c2Cl)c2cc(Nc3ccc(N4CCN(C)CC4)cc3)ncn2)cc1
4 | 13 | 22 | 0.15 | 100 | 100 | 100 | 100 | 100 | 100 | – | – | – | – | – | – | – | Cc1ccc(C(=O)Nc2cccc(C(F)(F)F)c2)cc1Nc1cncc(C(N)=O)c1
5 | – | 100 | 100 | 100 | – | 100 | – | – | – | 47 | 100 | 100 | 100 | 100 | 88 | 85 | CCOc1cc2ncc(C#N)c(Nc3ccc(OCc4ccccn4)c(Cl)c3)c2cc1NC(=O)/C=C/CN(C)C
6 | 100 | 100 | 100 | 100 | 12 | 100 | 100 | 100 | 100 | – | 2.8 | 4.8 | – | – | – | – | Cn1c(=O)n(-c2ccc(C(C)(C)C#N)cc2)c2c3cc(-c4cnc5ccccc5c4)ccc3ncc21
7 | 100 | 100 | 100 | 100 | 100 | 100 | 100 | 100 | 100 | – | – | – | – | – | – | – | COc1cc(C(=O)NC2CCN(C)CC2)ccc1Nc1ncc2c(n1)N(C1CCCC1)C(C)CC(=O)N2C (stereo unspecified)
8 | 100 | 100 | 100 | 100 | 100 | 0 | 100 | 100 | 100 | 100 | 100 | 100 | 100 | – | – | – | COc1cc(C(=O)NC2CCN(C)CC2)ccc1Nc1ncc2c(n1)N(C1CCCC1)CCC(=O)N2C(C)C
9 | 100 | 100 | 100 | 100 | 100 | 100 | 100 | 100 | 100 | 100 | 0.45 | 9.8 | 19 | – | – | – | CS(=O)(=O)N1CCN(Cc2cc3nc(-c4cccc5[nH]ncc45)nc(N4CCOCC4)c3s2)CC1
10 | 100 | 100 | 100 | 100 | 0.8 | 100 | 0.05 | 0.35 | 0.1 | – | – | – | – | – | – | – | C=CC(=O)Nc1cccc(Oc2nc(Nc3ccc(N4CCN(C)CC4)cc3OC)ncc2Cl)c1
11 | 30 | 28 | 100 | 20 | 0.1 | 0.2 | 100 | 100 | 100 | – | – | – | – | – | – | – | CNC(=O)c1ccc(Nc2cc(Nc3ccccc3S(=O)(=O)C(C)C)c3cc[nH]c3n2)nc1
12 | – | – | 62 | 0.8 | 0.1 | 0.15 | 41 | 24 | 65 | 4.6 | 100 | 59 | 95 | 28 | 11 | 8.4 | O=C(Nc1cccc(Nc2ncc(Br)c(NCCc3cnc[nH]3)n2)c1)N1CCCC1
13 | – | – | 91 | 74 | 1.2 | 79 | 26 | 100 | 41 | 80 | 20 | 4.6 | 15 | 36 | 14 | 6.4 | C=CC(=O)Nc1cc(-n2c(=O)ccc3cnc4ccc(-c5cn[nH]c5)cc4c32)ccc1C

Row | Compound | kinase still bound, per cent of control [1] [%] | kinase still bound, per cent of control [2] [%] | kinase still bound, per cent of control [3] [%] | kinase still bound, per cent of control [4] [%] | kinase still bound, per cent of control [5] [%] | kinase still bound, per cent of control [6] [%] | kinase still bound, per cent of control [7] [%] | kinase still bound, per cent of control [8] [%] | kinase still bound, per cent of control [9] [%] | kinase still bound, per cent of control [10] [%] | kinase still bound, per cent of control [11] [%] | kinase still bound, per cent of control [12] [%] | kinase still bound, per cent of control [13] [%] | kinase still bound, per cent of control [14] [%] | kinase still bound, per cent of control [15] [%] | kinase still bound, per cent of control [16] [%]
14 | Cc1n[nH]c2ccc(-c3cncc(OC[C@@H](N)Cc4c[nH]c5ccccc45)c3)cc12 | 100 | 100 | 100 | 100 | 0.2 | 12 | – | – | – | – | – | – | – | – | – | –
